The experiment relates to CD2F1 mice, L1210 leukemia ip, survival T/C. Kind of experiment: NCI In Vivo Anticancer Drug Screen. Data for tumor model L1210 Leukemia (intraperitoneal) in CD2F1 (CDF1) mice. The settings on record: higher = longer survival. In a few lines:
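Tumor-bearing mice (transplanted tumor) were split into treated and vehicle control groups, and the measured endpoint of each treated group was divided by that of its vehicle controls.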

[1] abbreviates: endpoint: mean survival time, dose: 100.0 mg/kg/injection, schedule: Q01DX009 (ip), vehicle: saline.
[2] abbreviates: endpoint: mean survival time, dose: 100.0 mg/kg/injection, schedule: Q01DX009 (ip), vehicle: saline with Tween-80.
[3] abbreviates: endpoint: mean survival time, dose: 100.0 mg/kg/injection, schedule: Q04DX003 (ip), vehicle: saline with Tween-80.
[4] abbreviates: endpoint: mean survival time, dose: 200.0 mg/kg/injection, schedule: Q01DX009 (ip), vehicle: saline with Tween-80.
The mark [5] stands for this setting: endpoint: mean survival time, dose: 200.0 mg/kg/injection, schedule: Q04DX003 (ip), vehicle: saline with Tween-80.
Where [6] appears, read: endpoint: mean survival time, dose: 400.0 mg/kg/injection, schedule: Q01DX009 (ip), vehicle: saline with Tween-80.
Setting [7] is: endpoint: mean survival time, dose: 400.0 mg/kg/injection, schedule: Q04DX003 (ip), vehicle: saline with Tween-80.
The mark [8] stands for this setting: endpoint: mean survival time, dose: 200.0 mg/kg/injection, schedule: Q01DX009 (ip), vehicle: saline.

SMILES strings stand for the structures. “And” between values parts separate entries of the source, which are not always exact repeats. Equal values may be shown once. Inconclusive results and toxic doses are left out. Non-standard residues stand in square brackets, D forms with d. Residues, ends and D or L forms follow the SMILES beside them. ξ: configuration not given here. ξIva = CCC(C)(N)C(=O)O

For `Fc1ccc(NC(=S)SCc2ccc(Cl)c(Cl)c2)cc1F`, the T/C by setting is: (endpoint: mean survival time, dose: 12.5 mg/kg/injection, schedule: Q01DX009 (ip), vehicle: saline) 98 % of control; (endpoint: mean survival time, dose: 12.5 mg/kg/injection, schedule: Q01DX009 (ip), vehicle: suspension in saline) 98 % of control; (endpoint: mean survival time, dose: 25.0 mg/kg/injection, schedule: Q01DX009 (ip), vehicle: saline) 101 % of control; (endpoint: mean survival time, dose: 25.0 mg/kg/injection, schedule: Q01DX009 (ip), vehicle: suspension in saline) 108 % of control; (endpoint: mean survival time, dose: 50.0 mg/kg/injection, schedule: Q01DX009 (ip), vehicle: Klucel (hydroxypropylcellulose) (HPC)) 112 % of control; (endpoint: mean survival time, dose: 50.0 mg/kg/injection, schedule: Q01DX009 (ip), vehicle: saline) 98 % of control. The T/C by setting is: (endpoint: mean survival time, dose: 50.0 mg/kg/injection, schedule: Q01DX009 (ip), vehicle: suspension in saline) 103 % of control; (endpoint: mean survival time, dose: 100.0 mg/kg/injection, schedule: Q01DX009 (ip), vehicle: Klucel (hydroxypropylcellulose) (HPC)) 107 % of control; under setting [1], 95 % of control; (endpoint: mean survival time, dose: 100.0 mg/kg/injection, schedule: Q01DX009 (ip), vehicle: suspension in saline) 104 % of control; (endpoint: mean survival time, dose: 200.0 mg/kg/injection, schedule: Q01DX009 (ip), vehicle: Klucel (hydroxypropylcellulose) (HPC)) 91 % of control.

In the case of `c1ccc2sc(NN=c3c4ccccc4sc4ccccc34)nc2c1`, the T/C runs as follows: (endpoint: mean survival time, dose: 75.0 mg/kg/injection, schedule: Q01DX001 (ip), vehicle: other) 107 % of control; (endpoint: mean survival time, dose: 150.0 mg/kg/injection, schedule: Q01DX001 (ip), vehicle: other) 100 % of control; (endpoint: mean survival time, dose: 300.0 mg/kg/injection, schedule: Q01DX001 (ip), vehicle: other) 94 % of control.

Consider `CC(=O)Nc1c([N+](=O)[O-])cc2c3c(cccc13)CC2`, for which the T/C under setting [2] was 102 % of control; the T/C under setting [3] was 100 % of control; the T/C under setting [4] is 97 % of control; the T/C under setting [5] was 102 % of control; the T/C under setting [6] is 97 % of control; the T/C under setting [7] was 100 % of control.

For `O=C1C(NCCO)=C(N2CC2)C(=O)C(NCCO)=C1N1CC1`, the T/C by setting is: (endpoint: median survival time, dose: 0.06 mg/kg/injection, schedule: Q01DX009 (ip), vehicle: saline) 122 % of control; (endpoint: median survival time, dose: 0.25 mg/kg/injection, schedule: Q01DX009 (ip), vehicle: saline) 153 % of control; (endpoint: median survival time, dose: 0.5 mg/kg/injection, schedule: Q01DX009 (ip), vehicle: saline) 171 % of control; (endpoint: median survival time, dose: 1.0 mg/kg/injection, schedule: Q01DX009 (ip), vehicle: saline) 220 % of control; (endpoint: median survival time, dose: 2.0 mg/kg/injection, schedule: Q01DX009 (ip), vehicle: saline) 86 % of control.

Consider `COC(=O)C1C2CCC(COC(C)=O)(O2)C1C(=O)O` (stereo not drawn), for which the T/C (endpoint: mean survival time, dose: 100.0 mg/kg/injection, schedule: Q01DX001 (ip), vehicle: saline with Tween-80) was 94 % of control; the T/C under setting [1] is 96 % of control; the T/C (endpoint: mean survival time, dose: 200.0 mg/kg/injection, schedule: Q01DX001 (ip), vehicle: saline with Tween-80) was 97 % of control; the T/C under setting [8] was 98 % of control; the T/C (endpoint: mean survival time, dose: 400.0 mg/kg/injection, schedule: Q01DX001 (ip), vehicle: saline with Tween-80) is 88 % of control.

For the molecule `Oc1ccccc1C=Nc1ccccc1.Oc1ccccc1C=Nc1ccccc1.[Co]`, where the note is “endpoint: mean survival time, dose: 100.0 mg/kg/injection, schedule: Q04DX003 (ip), vehicle: other”, the T/C was 92 % of control.

With `CC1=CCC(c2ccccc2)NC(=O)C1` (stereo not drawn), the T/C is, setting by setting: (endpoint: mean survival time, dose: 100.0 mg/kg/injection, schedule: Q04DX002 (ip), vehicle: saline with Tween-80) 96 % of control; (endpoint: mean survival time, dose: 200.0 mg/kg/injection, schedule: Q04DX002 (ip), vehicle: saline with Tween-80) 104 % of control; (endpoint: mean survival time, dose: 400.0 mg/kg/injection, schedule: Q04DX002 (ip), vehicle: saline with Tween-80) 104 % of control.

Regarding `CCC(C)(NC(=O)CN)C(=O)O` (stereo not drawn) (H-Gly-[ξIva]-OH), the T/C was 90 % of control (endpoint: mean survival time, dose: 100.0 mg/kg/injection, schedule: Q04DX002 (ip), vehicle: saline); 93 % of control (endpoint: mean survival time, dose: 200.0 mg/kg/injection, schedule: Q04DX002 (ip), vehicle: saline); 90 % of control (endpoint: mean survival time, dose: 400.0 mg/kg/injection, schedule: Q04DX002 (ip), vehicle: saline).

Take `CS(C)=O.[Cl-].[Cl-].[NH-]CC(O)CN(Cc1ccccc1)CC(O)CN.[Pt]` (stereo not drawn): the T/C is, setting by setting: (endpoint: median survival time, dose: 10.0 mg/kg/injection, schedule: Q04DX003 (ip), vehicle: saline) 104 % of control; (endpoint: median survival time, dose: 20.0 mg/kg/injection, schedule: Q04DX003 (ip), vehicle: saline) 109 % of control; (endpoint: median survival time, dose: 40.0 mg/kg/injection, schedule: Q04DX003 (ip), vehicle: saline) 110 % of control; (endpoint: median survival time, dose: 80.0 mg/kg/injection, schedule: Q04DX003 (ip), vehicle: saline) 86 % of control.

With `CC(C)N1CC(COc2cccc3ccccc23)OP1(=O)N(CCCl)CCCl` (stereo not drawn), the T/C reads like this: (endpoint: mean survival time, dose: 31.25 mg/kg/injection, schedule: Q01DX001 (ip), vehicle: distilled water + Tween-80) 101 % of control; (endpoint: mean survival time, dose: 62.5 mg/kg/injection, schedule: Q01DX001 (ip), vehicle: distilled water + Tween-80) 101 % of control; (endpoint: mean survival time, dose: 125.0 mg/kg/injection, schedule: Q01DX001 (ip), vehicle: distilled water + Tween-80) 95 % of control and 98 % of control and 101 % of control; (endpoint: mean survival time, dose: 250.0 mg/kg/injection, schedule: Q01DX001 (ip), vehicle: distilled water + Tween-80) 93 % of control and 103 % of control and 111 % of control; (endpoint: mean survival time, dose: 500.0 mg/kg/injection, schedule: Q01DX001 (ip), vehicle: distilled water + Tween-80) 90 % of control and 110 % of control; (endpoint: mean survival time, dose: 1000.0 mg/kg/injection, schedule: Q01DX001 (ip), vehicle: distilled water + Tween-80) 113 % of control and 93 % of control.

With `OC1(c2ccccc2)C(N2CCOCC2)=C(c2ccccc2)c2ccccc21` (stereo not drawn), the T/C runs as follows: under setting [3], 105 % of control; under setting [5], 100 % of control; under setting [7], 95 % of control.

Consider `O=P(O)(O)OCCCl`, for which the T/C is, setting by setting: under setting [1], 94 % of control; (endpoint: mean survival time, dose: 100.0 mg/kg/injection, schedule: Q04DX003 (ip), vehicle: saline) 100 % of control; under setting [8], 96 % of control; (endpoint: mean survival time, dose: 200.0 mg/kg/injection, schedule: Q04DX003 (ip), vehicle: saline) 94 % of control; (endpoint: mean survival time, dose: 400.0 mg/kg/injection, schedule: Q01DX009 (ip), vehicle: saline) 94 % of control; (endpoint: mean survival time, dose: 400.0 mg/kg/injection, schedule: Q04DX003 (ip), vehicle: saline) 94 % of control.

Regarding `Cc1cc(C)[nH]n1`, the T/C under setting [3] is 95 % of control, the T/C under setting [5] is 93 % of control and the T/C under setting [7] is 97 % of control.

Take `CC(C)=CC1CC(C)C2(CCC3(C)CC4C(C(=O)CC4(C)O)/C(C=O)=C\CC32)O1` (stereo not drawn): the T/C is, setting by setting: (endpoint: mean survival time, dose: 2.5 mg/kg/injection, schedule: Q01DX009 (ip), vehicle: saline with Tween-80) 97 % of control; (endpoint: mean survival time, dose: 5.0 mg/kg/injection, schedule: Q01DX009 (ip), vehicle: saline with Tween-80) 94 % of control; (endpoint: mean survival time, dose: 10.0 mg/kg/injection, schedule: Q01DX009 (ip), vehicle: saline with Tween-80) 97 % of control.

In the case of `COCCOC`, the T/C (endpoint: mean survival time, dose: 200.0 mg/kg/injection, schedule: Q01DX Z (ip), vehicle: carboxymethylcellulose (CMC)) is 103 % of control; the T/C (endpoint: mean survival time, dose: 300.0 mg/kg/injection, schedule: Q01DX Z (ip), vehicle: carboxymethylcellulose (CMC)) is 110 % of control; the T/C (endpoint: mean survival time, dose: 450.0 mg/kg/injection, schedule: Q01DX Z (ip), vehicle: carboxymethylcellulose (CMC)) was 114 % of control; the T/C (endpoint: mean survival time, dose: 675.0 mg/kg/injection, schedule: Q01DX Z (ip), vehicle: carboxymethylcellulose (CMC)) was 102 % of control.

In the case of `c1ccc2c(c1)Cn1c-2nc2ccccc21`, the T/C is 97 % of control under setting [3], 97 % of control under setting [5] and 94 % of control under setting [7].

Take `NC(=S)NNC(N)=S`: the T/C runs as follows: under setting [2], 101 % of control; under setting [3], 104 % of control; under setting [4], 95 % of control; under setting [5], 102 % of control; under setting [6], 110 % of control; under setting [7], 107 % of control.

`C[CH2][Sn]1([CH2]C)[O]C2C(CO)OC(n3ccc4c(N)ncnc43)C2[O]1` (stereo not drawn): the T/C (endpoint: mean survival time, dose: 0.78 mg/kg/injection, schedule: Q01DX005 (ip), vehicle: other) was 110 % of control; the T/C (endpoint: mean survival time, dose: 1.56 mg/kg/injection, schedule: Q01DX005 (ip), vehicle: other) is 104 % of control; the T/C (endpoint: mean survival time, dose: 3.13 mg/kg/injection, schedule: Q01DX005 (ip), vehicle: other) was 117 % of control.

The values above are taken from PubChem BioAssay AID256 (DTP/NCI, 2004).
